For the test, the system named is white blood cells (WBC). Put plainly: Effect of G-CSF and/or defibrotide on the amount of white blood cells in murine blood. Conditions: mice, IP injection, 5 days treatment; FIG. 1. It is filed as in vivo, BALB/c mice. Here is the method:
This experiment was carried out to evaluate the effect of the administration of G-CSF and/or defibrotide (DEF) on the amount of white blood cells (WBC) present in murine blood. BALB/c mice from 6 to 8 weeks old and having a body weight of from 20 to 25 g were subjected to intraperitoneal (IP) injections of G-CSF (5 μg/mouse/day), DEF (1 mg/mouse/day), or a combination of G-CSF (5 μg/mouse/day) and increasing doses of DEF (1, 10, 15 mg/mouse/day). A saline solution, buffered to 0.1%, of […] (PBS/MSA) was administered by IP injection to the control mice which had not received G-CSF and/or DEF. The mice were treated for 5 days and sacrificed after 3 or 5 days of treatment, or 3 days after therapy had ceased. The following symbols were used to represent each group of mice: G-CSF (▪) (n=24), DEF 1 (◯) (n=3), G-CSF+DEF 1 (♦) (n=13), G-CSF+DEF 10 (▴) (n=6), G-CSF+DEF 15 (●) (n=23). The mean white blood cell count in PBS/MSA in the control mice was 2.87±0.2×10^6/ml of blood; the data ate expressed as mean± standard error of the mean (SEM).

Consider one substance from patent US9782429B2, “Formulation having mobilizing activity” (GENTIUM SPA, priority 2000, dated 2017).

Regarding defibrotide, the “amount of white blood cells in circulation in murine blood” value is “does not have a positive influence”.
